{"source": "patent US6632789B1", "about": "“Methods for modulating T cell responses by manipulating intracellular signal transduction” (The United States of America as represented by the …, priority 1994, dated 2003)", "key": {"[1]": {"test_system": "CD28-induced IL-2 production", "conditions": "cited from earlier work"}, "[2]": {"test_system": "CD28-mediated calcium flux in Jurkat cells", "assay": "Anti-CD28 antibody-induced calcium flux in Jurkat cells", "type": "cell-based", "conditions": "Jurkat cells stimulated with anti-CD28 antibody; FIG. 4", "experimental": "In this example, the effect of pharmacological inhibitors on calcium flux in Jurkat cells induced by anti-CD28 antibodies was examined. The pharmacological inhibitors studied were wortmannin, which inhibits the activity of PI3K, and herbimycin A, which inhibits the activity of protein tyrosine kinases. Jurkat cells were stimulated with an anti-CD28 antibody, either in medium alone or in the presence of wortmannin or herbimycin A, and the mean calcium concentration (nM) in the cells was measured over several minutes following stimulation."}, "human T cells": {"test_system": "human T cells", "assay": "IL-2 production by human T cells after 24 hours (ELISA of supernatants)", "type": "cell-based", "conditions": "for IC50: T-cell", "experimental": "In this example, the effect of an inhibitor of phosphatidylinositol 3-kinase on CD28-dependent production of interleukin-2 by T cells was examined. In a first series of experiments, the effect of T cell stimulation through CD28, in conjunction with stimulation through CD3, on IL-2 production was assessed in the absence of wortmannin. Highly purified human peripheral blood T cells were incubated for 24 hours with an immobilized anti-CD3 antibody (OKT3) alone or together with either an anti-CD28 antibody (9.3) or mitomycin C-treated CHO cells, either untransfected or transfected to express B7-1 or B7-2. Increasing numbers of CHO cells were tested (0.5×10^6 to 4×10^6). After culture for 24 hours, the culture supernatants were assayed for IL-2 production by ELISA by standard techniques.\nIn a next series of experiments, resting human T cells were stimulated with either: 1) immobilized OKT3+CHO-B7-1, 2) immobilized OKT3+CHO-B7-2, 3) immobilized OKT3+CHO-B7-1+B7-2, 4) PMA+CHO-B7-1 or 5) PMA+B7-2. Stimulation of T cells was performed in media alone or in media containing wortmannin at concentrations between 1 nM and 1 μM. Twenty-four hours following culture, the supernatants were assayed for IL-2 production by ELISA. […] Wortmannin-mediated inhibition of IL-2 production was dose dependent. The ID50 for inhibition of B7-2 -mediated stimulation was approximately 10 nM. The ID50 for inhibition of B7-1-mediated stimulation was between 10 and 100 nM."}}, "note": "Like-named read-outs stand apart in the source and are kept apart here."}
{"compound": "CO[C@H]1[C@@H](OC)C[C@H](C)[C@@H](OC)C2=CC(=O)C=C(NC(=O)/C(C)=C/C=C\\[C@H](OC)[C@@H](OC(N)=O)/C(C)=C/[C@@H]1C)C2=O", "note": "[herbimycin A]", "values": [{"measurement": "inhibition of CD28-induced IL-2 production", "setting": "[1]", "result": "can inhibit"}, {"measurement": "inhibition of CD28 antibody-induced calcium flux", "setting": "[2]", "result": "capable of inhibiting"}]}
{"compound": "COC[C@H]1OC(=O)c2coc3c2[C@@]1(C)C1=C(C3=O)[C@@H]2CCC(=O)[C@@]2(C)C[C@H]1OC(C)=O", "note": "[wortmannin]", "values": [{"measurement": "IC50", "setting": "human T cells; resting human T cells, immobilized OKT3+CHO-B7-1, 24 hours, read-out: ID50 for inhibition of B7-1-mediated stimulation of IL-2 production", "result": "0.01 to 0.1", "unit": "µM"}, {"measurement": "IC50", "setting": "human T cells; resting human T cells, immobilized OKT3+CHO-B7-2, 24 hours, read-out: ID50 for inhibition of B7-2-mediated stimulation of IL-2 production", "result": "~0.01", "unit": "µM"}, {"measurement": "toxicity to the cells", "setting": "human T cells; resting human T cells, at the ID50 doses (10 to 100 nM)", "result": "not generally toxic"}, {"measurement": "inhibition of IL-2 production stimulated by PMA together with membrane-bound B7-1 or B7-2", "setting": "human T cells; resting human T cells, wortmannin at concentrations as high as 1 μM", "result": "not inhibited"}]}
{"compound": "OKT3: immobilized anti-CD3 antibody (OKT3)", "values": [{"measurement": "IL-2 production", "setting": "human T cells; purified human peripheral blood T cells, 24 hours, immobilized OKT3 alone, FIG. 6", "result": "did not produce IL-2"}]}
